# In patent US10799512B2, “Estrogen combination for treatment of multiple sclerosis” (The Regents of the University of California, priority 2014, dated 2020):
# Columns and labels:
# Assay type in all cases: in vivo, human
# [1] = tested on: female patients with active relapsing multiple sclerosis; experiment: Timed 25-foot walk test; conditions: between-group difference p=0.02; higher time = worse
# Source text: (§1) Patients also underwent mammograms before and after the study.
# Another clinical disability measure with treatment effects was the timed 25-foot walk test. This test measures how many seconds it takes to walk 25 feet, with higher scores indicating worse disability. […] This beneficial effect of estriol treatment on 25-foot walking times is consistent with the beneficial effect of estriol treatment on EDSS scores since the latter is weighted toward being an indicator of ambulation.
# [2] = tested on: female patients with active relapsing multiple sclerosis; experiment: Expanded Disability Status Scale (EDSS); conditions: over 24 months
# Source text: as §1
# The Expanded Disability Status Scale (EDSS) is a standard composite disability score used in MS trials. Higher scores indicate worse disability. This composite covers a variety of disabilities (including ambulation, vision, cognition, coordination, etc.), but the scoring is not linear and the composite score is understood to be principally an indicator of the level of disability in ambulation.
# [3] = tested on: female patients with active relapsing multiple sclerosis; experiment: Brain MRI, gadolinium enhancing lesions; conditions: at month 12; p=0.14
# Source text: as §1
# Brain MRI is used extensively in MS as a surrogate marker for clinical effects. Brain white matter gadolinium enhancing lesions are a biomarker for relapses.
# [4] = tested on: female patients with active relapsing multiple sclerosis; experiment: Safety and tolerability (gynecological and breast exams, adverse events); conditions: patients received Copaxone with estriol
# Method: 158 patients were randomized to Copaxone® (glatiramer acetate) injections (20 mg/day) and oral estriol (8 mg/day) or to Copaxone® injections and placebo for a 24-month treatment duration. Gynecologists examined the patients before, during, and after the study. Each patient was examined at three- to six-month intervals during the trial. Patients also underwent mammograms before and after the study. In addition, at baseline, three months, six months, 12 months, 18 months, and 24 months, the investigators measured participants' estriol levels, and assessed for MS relapses and MS-related disabilities.
# Baseline characteristics were similar in both patient groups. Participants' mean age at entry was approximately 38, and their mean EDSS score at entry was 2.2. […] To ensure breast and uterus safety, every three months the patients took norethindrone 0.7 mg once a day for 14 days.
# [5] = Estriol blood/serum levels in treated patients
# Method: as §1
# Baseline characteristics were similar in both patient groups.
# FIG. 6 depicts estriol blood levels induced by treatment with estriol 8 mg per day every day plus norethindrone 0.7 mg a day for 14 days every 3 months.
"estriol blood levels induced ([5]; estriol 8 mg per day every day plus norethindrone 0.7 mg a day for 14 days every 3 months, FIG. 6)","estriol levels in serum ([5]; estriol-treated group, oral estriol 8 mg/day)",Compound,change in 25-foot walk time [1],"EDSS scores, slope ([2]; FIG. 4, p=0.06 (estriol), p=0.90 (placebo))",change in EDSS scores ([2]; decrease = improvement),reduction in number of subjects with brain MRI scans positive for enhancing lesions [3],Breast - Fibrocystic breast disease on clinical exam [4],Uterine fibroids on ultrasound [4]
,,glatiramer acetate [Copaxone® plus placebo],significantly increased,−0.01,no change,22%,,
about 10 ng/ml,mid-pregnancy range,C[C@]12CC[C@@H]3c4ccc(O)cc4CC[C@H]3[C@@H]1C[C@@H](O)[C@@H]2O [estriol],,,,,5 subjects,8 subjects
